What was measured:
[1] = tested on: Micrococcus luteus reference strain; assay: Bacterial growth (optical density at 600 nm) on Micrococcus luteus reference strain; assay type: cell-based; design: key: 0 = no effect, 1 = pure only, 2 = several concentrations, 3 = strong at all; conditions: in DMSO diluted in PBS, compared with triclosan
Procedure: (§1) The bacterial growth is evaluated by measuring the optical density (DO) at 600 nm using NanoDrop.
(§2) This ratio permits a classification of the molecules in 4 effect levels: • 0=no effect observed; • 1=effect observed only when the molecule is tested pure; • 2=effect observed at several concentrations, but which gradually decreases the dilutions; • 3=strong effect observed at each concentration of molecule tested.
The molecules are put in a solution in DMSO and diluted in PBS.

[2] = tested on: KB cells (epidermoid carcinoma); assay: In vitro cytotoxicity, cell proliferation test (MTS) on KB cells; assay type: cell-based; conditions: Homo sapiens, KB cells, triplicate, 72 hours of exposure, with respect to DMSO control, read-out: percentage of inhibition of cell growth
Procedure: The human cell strain KB (epidermoid carcinoma) was obtained from the NCI (National Cancer Institute) and cultivated in the D-MEM medium added with 10% of foetal bovine serum (Invitrogen) in the presence of penicillin, streptomycin and fungizone in flasks of […] under CO2 at 5%. The cells were deposited on tissue culture microplates with 96 wells and a density of 650 cells/well in 200 μl of medium and treated 24 hours later with compounds of the invention dissolved in DMSO at concentrations going from 0.5 nM to 10 μM using a Biomek 3000 (Beckman-Coulter) automaton. The controls received the same volume of DMSO (1% of final volume). After 72 hours of exposure, the MTS reagent (Celltiter 96Aqueous One solution, Promega) was added and incubated for 3 hours at 37° C.: the absorbance was measured at 490 nm and the results of inhibition of the cell proliferation were calculated according to the ratio [(1−(OD490treated/OD490control))×100].
Results: Cytotoxicity at 10^−5 and 10^−6M on Triplicate KB Cells, Measured after 72 Hours of Exposure.
The percentage of inhibition of cell growth with respect to the cells receiving the same quantity of DMSO is outlined in the table below.

[3] = tested on: K. pneumoniae strains presenting high levels of resistance; assay: Bacterial growth on K. pneumoniae strains presenting high levels of resistance; assay type: cell-based, Klebsiella pneumoniae; design: key to Effects (0 < 1 < 2 < 3): 0 = no effect; 1 = pure only; 2 = several concs; 3 = strong at each; key to Δ DO: change in optical density measured at 600 nm; conditions: for Effects (0 < 1 < 2 < 3): molecules at 1, 0.5 and 0.1 mg/ml, triclosan at 0.1 mg/ml
Procedure: as §1, §2
(§3) Compounds of the invention were tested on 4 strains of E. coli, 3 strains of K. pneumoniae and 4 strains of S. aureus with the resistance profiles below.

[4] = tested on: Stenotrophomonas maltophila; assay: Bacterial growth screening on wild-type phenotype strain, S. maltophila; assay type: cell-based
Procedure: as §1, §2
(§4) A screening of molecules of the invention on several wild-type phenotype strains has been carried out.
(§5) The strains initially selected are: • Gram+: Streptococcus equi subsp zooepidemicus and Staphylococcus aureus • Gram−: Escherichia coli, Klebsiella pneumoniae and Stenotrophomonas maltophila.

Escherichia coli = assay: Bacterial growth screening on wild-type phenotype strain, E. coli; assay type: cell-based
Procedure: as §1, §2, §4, §5

[5] = tested on: S. aureus strains presenting high levels of resistance; assay: Bacterial growth on S. aureus strains presenting high levels of resistance; assay type: cell-based, Staphylococcus aureus; design: key to Effects (0 < 1 < 2 < 3): 0 = no effect; 1 = pure only; 2 = several concs; 3 = strong at each; key to Δ DO: change in optical density measured at 600 nm; conditions: for Effects (0 < 1 < 2 < 3): molecules at 1, 0.5 and 0.1 mg/ml, triclosan at 0.1 mg/ml
Procedure: as §1, §2, §3

Klebsiella pneumoniae = assay: Bacterial growth screening on wild-type phenotype strain, K. pneumoniae; assay type: cell-based
Procedure: as §1, §2, §4, §5

Staphylococcus aureus = assay: Bacterial growth screening on wild-type phenotype strain, S. aureus; assay type: cell-based
Procedure: as §1, §2, §4, §5

[6] = tested on: E. coli strains presenting high levels of resistance; assay: Bacterial growth on E. coli strains presenting high levels of resistance; assay type: cell-based, Escherichia coli; design: key to Effects (0 < 1 < 2 < 3): 0 = no effect; 1 = pure only; 2 = several concs; 3 = strong at each; key to Δ DO: change in optical density measured at 600 nm; conditions: for Effects (0 < 1 < 2 < 3): molecules at 1, 0.5 and 0.1 mg/ml, triclosan at 0.1 mg/ml
Procedure: as §1, §2, §3

[7] = tested on: Streptococcus equi subsp zooepidemicus; assay: Bacterial growth screening on wild-type phenotype strain, S. zooepidemicus; assay type: cell-based
Procedure: as §1, §2, §4, §5

## COc1cc(O)c(Cl)c(Br)c1Cl [sr7616]
[1]
  Effect level: 3
[2]; 10^−5 M
  inhibition at 10 µM: 0%
[2]; 10^−6 M
  inhibition at 1 µM: 0%
[3]; K. pneumoniae Strain 1, 0.1 mg/ml
  Δ DO: 0.236
[3]; K. pneumoniae Strain 1, 0.5 mg/ml
  Δ DO: 0.594
[3]; K. pneumoniae Strain 1, 1 mg/ml
  Δ DO: 0.646
[3]; K. pneumoniae Strain 1
  Effects (0 < 1 < 2 < 3): 3
[3]; K. pneumoniae Strain 2, 0.1 mg/ml
  Δ DO: 0.151
[3]; K. pneumoniae Strain 2, 0.5 mg/ml
  Δ DO: 0.641
[3]; K. pneumoniae Strain 2, 1 mg/ml
  Δ DO: 0.686
[3]; K. pneumoniae Strain 2
  Effects (0 < 1 < 2 < 3): 2
[3]; K. pneumoniae Strain 3, 0.1 mg/ml
  Δ DO: 0.213
[3]; K. pneumoniae Strain 3, 0.5 mg/ml
  Δ DO: 0.652
[3]; K. pneumoniae Strain 3, 1 mg/ml
  Δ DO: 0.847
[3]; K. pneumoniae Strain 3
  Effects (0 < 1 < 2 < 3): 2
[4]
  Effect level, S. maltophila: 2
Escherichia coli
  Effect level, E. coli: 3
[5]; S. aureus Strain 1, 0.1 mg/ml
  Δ DO: 0.276
[5]; S. aureus Strain 1, 0.5 mg/ml
  Δ DO: 0.443
[5]; S. aureus Strain 1, 1 mg/ml
  Δ DO: 0.445
[5]; S. aureus Strain 1
  Effects (0 < 1 < 2 < 3): 3
[5]; S. aureus Strain 2, 0.1 mg/ml
  Δ DO: 0.303
[5]; S. aureus Strain 2, 0.5 mg/ml
  Δ DO: 0.458
[5]; S. aureus Strain 2, 1 mg/ml
  Δ DO: 0.459
[5]; S. aureus Strain 2
  Effects (0 < 1 < 2 < 3): 3
[5]; S. aureus Strain 3, 0.1 mg/ml
  Δ DO: 0.299
[5]; S. aureus Strain 3, 0.5 mg/ml
  Δ DO: 0.529
[5]; S. aureus Strain 3, 1 mg/ml
  Δ DO: 0.525
[5]; S. aureus Strain 3
  Effects (0 < 1 < 2 < 3): 3
[5]; S. aureus Strain 4, 0.1 mg/ml
  Δ DO: 0.291
[5]; S. aureus Strain 4, 0.5 mg/ml
  Δ DO: 0.491
[5]; S. aureus Strain 4, 1 mg/ml
  Δ DO: 0.491
[5]; S. aureus Strain 4
  Effects (0 < 1 < 2 < 3): 3
Klebsiella pneumoniae
  Effect level, K. pneumoniae: 3
Staphylococcus aureus
  Effect level, S. aureus: 2
[6]; E. coli Strain 1, 0.1 mg/ml
  Δ DO: 0.089
[6]; E. coli Strain 1, 0.5 mg/ml
  Δ DO: 0.640
[6]; E. coli Strain 1, 1 mg/ml
  Δ DO: 0.857
[6]; E. coli Strain 1
  Effects (0 < 1 < 2 < 3): 2
[6]; E. coli Strain 2, 0.1 mg/ml
  Δ DO: 0.331
[6]; E. coli Strain 2, 0.5 mg/ml
  Δ DO: 0.854
[6]; E. coli Strain 2, 1 mg/ml
  Δ DO: 1.069
[6]; E. coli Strain 2
  Effects (0 < 1 < 2 < 3): 3
[6]; E. coli Strain 3, 0.1 mg/ml
  Δ DO: 0.141
[6]; E. coli Strain 3, 0.5 mg/ml
  Δ DO: 0.679
[6]; E. coli Strain 3, 1 mg/ml
  Δ DO: 0.825
[6]; E. coli Strain 3
  Effects (0 < 1 < 2 < 3): 3
[6]; E. coli Strain 4, 0.1 mg/ml
  Δ DO: 0.308
[6]; E. coli Strain 4, 0.5 mg/ml
  Δ DO: 0.868
[6]; E. coli Strain 4, 1 mg/ml
  Δ DO: 0.853
[6]; E. coli Strain 4
  Effects (0 < 1 < 2 < 3): 3
[7]
  Effect level, S. zooepidemicus: 3

— patent publication US20210337789A1, “Derivatives of m-Guaiacol, Their Preparation and Their Uses” (Universite de Caen Normandie, priority 2018, published 2021)
